Data from US20090197906A1, “REVERSION OF MALIGNANT PHENOTYPE WITH 9-HYDROXY ELLIPTICINE DERIVATIVES” (priority 2006, published 2009).

How the values were obtained:
[1] = tested on: B16BL6 melanoma cell line; experiment: MTT cell viability, combination with retinoids; assay type: cell-based; details: 10 nM retinoid only, 3 days
Protocol: The ex vivo cell viability inhibition by BA016DD537 in the presence of the retinoids 13CRA and ATRA was tested against B16BL6 melanoma cell line using the 3-(4,5 dimethylthiazol-2-yl)-2,5-diphenyl-2H-tetrazolium bromide (MTT) calorimetric assay.
(§1) About 1000 cells were seeded in a 96-well culture plate 24 hours before adding increasing concentrations of BA016DD537, from 1 pM to 100 pM, in the absence or in the presence of 10 nM of retinoids. The plate was incubated at 37° C. for 3 days. 10 μl MTT stock solution (5 mg/ml in phosphate buffer saline) was added to 90 μl of complete medium in each well, the incubation was continued for 3 h at 37° C. 100 μl of lysis buffer (20% sodium dodecyl sulfate, 10 mM HCl, 1×PBS) was added to each well, and the plate was incubated overnight. The absorbance was determined using an Integrated EIA Management System (Labsystem) at a wavelength of 570 nm.

[2] = tested on: actin in NIH 3T3 EF extract; experiment: fluorescence anisotropy assay of actin dynamics in cell extract; assay type: biochemical; details: for effect on actin-F elongation rate constant and actin-F steady state value: NIH 3T3 EF cytosolic fractions; for k (rate constant of F-actin elongation) / Δ mA (anisotropy enhancement, steady state F-actin): malignant NIH 3T3 EF extract, compound at 200 nM
Protocol: Actin dynamics is known to be impaired in tumor cells with a subsequent decrease of F-actin to G-actin ratio. Actin dynamics has been quantified in tumor cell extracts using the fluorescence anisotropy assay which gains access to rate constant of F-actin elongation (k) and steady state concentration of F-actin (Δ mA).
All reactions were carried out at 22° C. and fluorescence anisotropy signal was recovered at 520 nm with excitation at 490 nm in a Beacon 2000 (Panvera). Alexa 488 actin (Molecular Probes) was centrifuged at 35 000 rpm for 2 h at 4° C. to sediment residual actin polymers in a Beckman L5-50B ultracentrifuge. […] 80% of the supernatant was withdrawn; the concentration was defined through fluorescence measurements (excitation at 490 nm and signal recovering at 520 nm). The ultracentrifuged actin concentration was calculated using the non ultracentrifuged Alexa 488 actin as a standard. The supernatant was aliquoted, frozen in liquid nitrogen and stored at −80° C.
Before experiment, an aliquot of ultracentrifuged Alexa 488 actin was diluted to a concentration of […] in G buffer (5 mM Tris pH 8.1, 2 mM CaCl2, 0.2 mM DTT, 0.2 mM ATP). 3 μl of diluted Alexa 488 actin was mixed in 168 μl of G buffer and actin monomers anisotropy was measured before the addition of 4 μl of polymerisation buffer (2.5 M KCl, 50 mM MgCl2, 25 mM ATP), 5 μl of G buffer in the presence or in the absence of the chemical molecule and 20 μl cellular extract of normal NIH 3T3 cells or malignant NIH 3T3 EF cells at 2 mg/ml. The final concentration of Alexa 488 actin was 4 nM. The ratio of unlabelled to labelled actin was about 140/4 nM. Measurements were made each 10 sec for 200 sec. Actin monomers anisotropy value was subtracted, yielding the anisotropy enhancement (Δ mA). The data were fitted with the equation Y=Ymax. [1−exp(−K.X)]. The curves start at zero and ascend to Ymax that corresponds to the steady state anisotropy value (Δ mA eq), with a rate constant K. Y is anisotropy values of which monomers anisotropy is subtracted and X is the time.

Melanoma B16 cells = experiment: antitumor activity, i.p. grafted B16 melanoma, survival; assay type: in vivo, B6D2F1 mice
Protocol: Antitumor activity against B16 melanoma can be assessed in mice using i.p. graft of malignant cells followed by i.p. treatment. This type of protocol which by-pass various biodisponibility parameters gives information roughly on the maximal antitumor activity which can be expected for a given tumor.
Melanoma B16 cells (4×10^5) were injected in B6D2F1 mice using i.p. route at J0. Drugs, dissolved in sterile distilled water (0.5 ml) were injected daily using as well i.p. route from J1 to J9 at various concentrations. Control mice received distilled water only according the same protocol.
Treated and control mice were counted daily. TIC (mean survival of treated mice/mean survival of control mice) was calculated at J9.

NIH 3T3 EF cells [3] = experiment: F-actin network rescue, FITC-phalloidin fluorescence microscopy; assay type: cell-based; details: non cytotoxic concentrations (100 nM and 200 nM), three days
Protocol: Malignant NIH 3T3 EF cells were seeded onto glass cover slips at a density of 2000 cells per cm^2. The next day, BA016DD537 was applied to NIH 3T3 EF cells at various non cytotoxic concentrations (100 nM and 200 nM). Three days later, cells were fixed for 10 min in PBS containing 3.7% formaldehyde at 4° C. before examination with a fluorescence microscope. The formaldehyde solution was neutralized with 50 mM NH4Cl. Extraction was carried out for 4 min with 0.4% Triton X-100 in PBS. Cells were incubated for 1 h with blocking buffer (3% bovine serum albumin in PBS) and then for 20 min with FITC-phalloidin (Sigma) at room temperature. Cover slips were mounted in Vectashieldk (Zymed) and observed through a fluorescence microscope (Nikon).

NIH 3T3 EF cells [4] = experiment: wound healing assay (cell motility); assay type: cell-based; details: non cytotoxic concentrations
Protocol: Wound healing assay was performed to evaluate the effect of BA016DD537 on motility of malignant NIH 3T3 EF cells and melanoma cell lines B16F10 and B16BL6. All the cells were incubated at 37° C. in a humidified 5% CO2 atmosphere. About 100 000-200 000 cells were seeded in a 6-well culture plate and BA016DD537, at the different concentrations, was added 24 hours later. Cells were grown for 3 days to confluence about 90-95% and small scratch-wounds (about 200 μm-1 mm width) were made with a pipette tip. Cell debris were removed, then the cultures were incubated in complete medium for 10 h in the presence of the same concentration of BA016DD537. Then, the cells were fixed for 10 min in PBS containing 3.7% formaldehyde at 4° C.

B16F10 [5] = experiment: MTT cell proliferation assay; assay type: cell-based, murine; details: Mus musculus, B16-F10; B16F10 (Example 11); read-out: IC50 (MTT Test-72 h)
Protocol: Growth studies were performed using the [3-(4,5 dimethylthiazol-2-yl)-2,5-diphenyl-2H-tetrazolium bromide] (Sigma) calorimetric assay.
as §1, with “1500 to 5000 cells, according to the cell line,” for “1000 cells”, “BA016DD537” for “BA016DD537, from 1 pM to 100 pM, in the absence”, “BA016FZ539.” for “in the presence of 10 nM of retinoids.”, “(10%” for “(20%”, “1% HCl 1N; pH 4.7)” for “10 mM HCl, 1×PBS)”, “nm. The proliferation rates were calculated from the OD readings using the untreated cells as 100%.” for “nm.”
(§2) Growth studies were performed using both MTT and SRB calorimetric assay (Sigma). About 1500 B16F10 or 3000 pancreatic cells (MIA PaCa-2 and PANC1) were seeded in a 96-well culture plate before adding increasing concentrations of monomesylate or bimesylate.
(§3) The plates were incubated at 37° C. for 3 days and then were treated depending on SRB or MTT protocols (see material and methods).
(§4) In these two cases, the proliferation rates were calculated from the OD readings using the untreated cells as 100%.

Mia Paca-2 = experiment: SRB (sulforhodamine B) cell proliferation assay; assay type: cell-based, human; details: Homo sapiens; Mia Paca-2 (Example 11); read-out: IC50 (SRB Test-72 h)
Protocol: (§5) After an incubation period, cell monolayers are fixed with 10% (wt/vol) trichloroacetic acid and stained for 30 min, after which the excess dye is removed by washing repeatedly with 1% (vol/vol) acetic acid. The protein-bound dye is dissolved in 10 mM Tris base solution for optic density determination (OD) at 510 nm using a microplate reader.
(§6) The proliferation rates were calculated from the OD readings using the untreated cells as 100%.
(§7) The effects BA016FZ539 on the growth of MIA PaCa-2 and PANC-1 pancreatic cells were tested over a range of concentrations from 500 μM to 0.16 μM and measured by using the SRB calorimetric assay.
(§8) About 5000 MIA PaCa-2 or PANC-1 cells were seeded in a 96-well culture plate while adding increasing concentrations of BA016FZ539.
as §2, §3, §4

PANC-1 = experiment: SRB (sulforhodamine B) cell proliferation assay; assay type: cell-based, human; details: Homo sapiens; PANC-1 (Example 11); read-out: IC50 (SRB Test-72 h)
Protocol: as §5, §6, §7, §8, §2, §3, §4

B16F10 [6] = experiment: SRB (sulforhodamine B) cell proliferation assay; assay type: cell-based, murine; details: Mus musculus, B16-F10; B16F10 (Example 11); read-out: IC50 (SRB Test-72 h)
Protocol: as §2, §3, §4

B16F10 [7] = experiment: cloning assay in methylcellulose (colony formation); assay type: cell-based, murine; details: Mus musculus, B16-F10, 216 h; B16F10, clones counted after 9 days (Example 11); read-out: B16F10 Inhibition of colony formation IC50
Protocol: Cells were embedded in complete culture medium supplemented with 0.8% methylcellulose (Methocel MC4000, Sigma), seeded in triplicate into 35-mm dishes (Greiner Bio-one Ref 627102, Dominique Dutscher) and incubated at 37° C. in a humidified 5% CO2 atmosphere. The number of cells seeded was 1000 cells per dish. After one to three weeks, according to cell lines, macroscopic clones were counted.
Cells were embedded in complete culture medium supplemented with 0.8% methyl-cellulose (Methocel MC4000, Sigma), seeded in triplicate into 35-mm dishes and incubated at 37° C. in a humidified 5% CO2 atmosphere. The number of cells seeded was 1000 cells per dish. After 9 days, macroscopic clones of murine melanoma cell line B16F10 were counted.

Row | SMILES | cell viability inhibition (MTT) [1] | effect on actin-F elongation rate constant and actin-F steady state value [2] | k (rate constant of F-actin elongation) [2] | Δ mA (anisotropy enhancement, steady state F-actin) [2] | rebuilding of actin network / morphology (NIH 3T3 EF cells [3]) | migration of treated malignant cells into the wound (NIH 3T3 EF cells [4]) | other results
1 | CC1=C(/C=C/C(C)=C/C=C/C(C)=C\C(=O)O)C(C)(C)CCC1 [13CRA, 13-cis-retinoic acid, reference compound] | No cell viability inhibition |  |  |  |  |  | 
2 | CC1=C(/C=C/C(C)=C/C=C/C(C)=C/C(=O)O)C(C)(C)CCC1 [ATRA, all-transretinoic acid, reference compound] | No cell viability inhibition |  |  |  |  |  | 
3 | Cc1c2cc[n+](C)cc2c(C)c2c1[nH]c1ccc(O)cc12 [BA016CA77, 9-hydroxy-2(beta-methyl)-ellipticinium acetate] |  | do not increase the actin-F elongation rate constant and the actin-F steady state value | 0.0416 s⁻¹ | 38.33 | neither 9-hydroxy-2-ethyl)-ellipticinium acetate, nor 9-hydroxy-2(methyl)-ellipticinium acetate (Celiptium) were found active | migrate in the same way as non treated malignant cells | T/C (%) (mean survival of treated mice/mean survival of control mice) (Melanoma B16 cells; 0.125 mg/kg/inj. i.p. daily J1 to J9): 121%; T/C (%) (mean survival of treated mice/mean survival of control mice) (Melanoma B16 cells; 0.25 mg/kg/inj. i.p. daily J1 to J9): 122%; T/C (%) (mean survival of treated mice/mean survival of control mice) (Melanoma B16 cells; 0.5 mg/kg/inj. i.p. daily J1 to J9): 58%; antitumor activity against B16 melanoma (T/C>125% = significant) (Melanoma B16 cells; i.p. graft, i.p. treatment): no significant antitumor activity
4 | CC(=O)[O-].CC[n+]1ccc2c(C)c3[nH]c4ccc(O)cc4c3c(C)c2c1 [BA016CA107, 9-hydroxy-2(beta-ethyl)-ellipticinium acetate] |  | do not increase the actin-F elongation rate constant and the actin-F steady state value | 0.0280 s⁻¹ | 42.14 | neither 9-hydroxy-2-ethyl)-ellipticinium acetate, nor 9-hydroxy-2(methyl)-ellipticinium acetate (Celiptium) were found active | migrate in the same way as non treated malignant cells | 
5 | Cc1c2cc[n+](CCN3CCCCC3)cc2c(C)c2c1[nH]c1ccc(O)cc12 [Bimesylate] |  |  |  |  |  |  | IC50 (B16F10 [5]): 2.8 µM; IC50 (Mia Paca-2): 2.5 µM; IC50 (PANC-1): 37.6 µM; IC50 (B16F10 [6]): 1.8 µM; IC50 (B16F10 [7]): 0.021 µM
